For 15 molecules, IC50 results are on record in US20240360178A1, “MACROCYCLIC IMMUNOMODULATORS” (Bristol-Myers Squibb Company, priority 2021, published 2024).

Positions of bridges follow the written chain, without caps; N, C: chain ends. Non-standard residues stand in square brackets, D forms with d. Residues, ends and D or L forms follow the SMILES beside them. Bip = N[C@@H](Cc1ccc(-c2ccccc2)cc1)C(=O)O; NMeF = CN[C@@H](Cc1ccccc1)C(=O)O; 3Pal = N[C@@H](Cc1cccnc1)C(=O)O; 4Pal = N[C@@H](Cc1ccncc1)C(=O)O; Phg = N[C@H](C(=O)O)c1ccccc1; NMeA = CN[C@@H](C)C(=O)O; Orn = NCCC[C@H](N)C(=O)O; Dab = NCC[C@H](N)C(=O)O; Nva = CCC[C@H](N)C(=O)O; Abu = CC[C@H](N)C(=O)O

In this assay the target is T1, human PD-1 (Jurkat-PD-1 cells) / PE-labeled human PD-L1-Ig (Homo sapiens, UniProt Q15116).
T1 construct: expressed in transfected cells; host or cells: Jurkat cell line over-expressing human PD-1
T1 sequence (Q15116 25-288): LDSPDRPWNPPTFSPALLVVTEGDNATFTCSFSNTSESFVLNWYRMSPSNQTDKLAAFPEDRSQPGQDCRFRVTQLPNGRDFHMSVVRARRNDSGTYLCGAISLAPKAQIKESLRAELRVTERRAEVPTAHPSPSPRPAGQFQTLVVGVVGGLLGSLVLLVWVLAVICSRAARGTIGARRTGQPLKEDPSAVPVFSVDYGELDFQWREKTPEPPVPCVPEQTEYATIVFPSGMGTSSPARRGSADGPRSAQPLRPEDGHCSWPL
Kind of assay: Jurkat-PD-1 Cell Binding High-Content Screening Assay (CBA); Jurkat hPD1-PDL1 assay. The settings on record: Jurkat cell line over-expressing human PD-1; PE-labeled PD-L1-Ig 20 nM final; compound incubated 2 hours at 37° C.; read-out: Jurkat HPD1-PDL1 IC50. Summed up:
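Binding of phycoerythrin-conjugated PD-L1-Ig (20 nM final) to PD-1-overexpressing Jurkat cells was read by high-content imaging. Cells in DMEM/10% FCS were exposed to compound for 2 hours at 37° C before labeled ligand was added.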
Take `CC(C)C[C@@H]1NC(=O)[C@H](CCCNC(=N)N)NC(=O)[C@H](Cc2ccccc2)N(C)C(=O)[C@H](C)N(C)C(=O)[C@H](CCCNC(=N)N)NC(=O)[C@H](Cc2ccc(-c3ccccc3)cc2)NC(=O)[C@H](c2ccccc2)NC(=O)[C@H](Cc2c[nH]c3ccccc23)NC(=O)[C@H](CC(=O)O)NC(=O)[C@H](Cc2ccc(O)cc2)NC(=O)[C@H](Cc2ccccc2)NC(=O)CSC[C@@H](C(=O)NCC(N)=O)NC(=O)[C@H](CO)NC(=O)[C@H](C(C)C)NC1=O` [Example 1334] ({CH2CO}-FYDW[Phg][Bip]R[NMeA][NMeF]RLVSCG-NH2; thioether N-14): the IC50 came out at 430 nM.

`CCC[C@@H]1NC(=O)[C@H](Cc2c[nH]c3ccccc23)NC(=O)[C@H](CC(=O)O)NC(=O)[C@H](Cc2ccc(O)cc2)NC(=O)[C@H](Cc2ccccc2)NC(=O)CSC[C@@H](C(=O)NCC(N)=O)NC(=O)[C@H](CO)NC(=O)[C@H](C(C)C)NC(=O)[C@H](CC(C)C)NC(=O)[C@H](CCCNC(=N)N)NC(=O)[C@H](Cc2ccccc2)N(C)C(=O)[C@H](C)N(C)C(=O)[C@H](CCCNC(=N)N)NC(=O)[C@H](Cc2ccc(-c3ccccc3)cc2)NC1=O` [Example 1335] ({CH2CO}-FYDW[Nva][Bip]R[NMeA][NMeF]RLVSCG-NH2; thioether N-14): the IC50 stood at 140 nM. The figure for `CC[C@@H]1NC(=O)[C@H](Cc2c[nH]c3ccccc23)NC(=O)[C@H](CC(=O)O)NC(=O)[C@H](Cc2ccc(O)cc2)NC(=O)[C@H](Cc2ccccc2)NC(=O)CSC[C@@H](C(=O)NCC(N)=O)NC(=O)[C@H](CO)NC(=O)[C@H](C(C)C)NC(=O)[C@H](CC(C)C)NC(=O)[C@H](CCCNC(=N)N)NC(=O)[C@H](Cc2ccccc2)N(C)C(=O)[C@H](C)N(C)C(=O)[C@H](CCCNC(=N)N)NC(=O)[C@H](Cc2ccc(-c3ccccc3)cc2)NC1=O` [Example 1336] ({CH2CO}-FYDW[Abu][Bip]R[NMeA][NMeF]RLVSCG-NH2; thioether N-14) is 410 nM; for `CC[C@H](NC(=O)[C@@H]1CSCC(=O)N[C@@H](Cc2ccccc2)C(=O)N[C@@H](Cc2ccc(O)cc2)C(=O)N[C@@H](CC(=O)O)C(=O)N[C@@H](Cc2c[nH]c3ccccc23)C(=O)N[C@@H](C(C)C)C(=O)N[C@@H](Cc2ccc(-c3ccccc3)cc2)C(=O)N[C@@H](CCCNC(=N)N)C(=O)N(C)[C@@H](C)C(=O)N(C)[C@@H](Cc2ccccc2)C(=O)N[C@@H](CCCNC(=N)N)C(=O)N[C@@H](CC(C)C)C(=O)N[C@@H](C(C)C)C(=O)N[C@@H](CO)C(=O)N1)C(N)=O` [Example 1337] ({CH2CO}-FYDWV[Bip]R[NMeA][NMeF]RLVSC[Abu]-NH2; thioether N-14) it is 870 nM; for `CC(C)C[C@@H]1NC(=O)[C@H](CCCNC(=N)N)NC(=O)[C@H](Cc2ccccc2)N(C)C(=O)[C@H](C)N(C)C(=O)[C@H](CCCNC(=N)N)NC(=O)[C@H](Cc2ccc(-c3ccccc3)cc2)NC(=O)[C@H](C(C)C)NC(=O)[C@H](Cc2c[nH]c3ccccc23)NC(=O)[C@H](CC(=O)O)NC(=O)[C@H](Cc2ccc(O)cc2)NC(=O)[C@H](Cc2ccccc2)NC(=O)CSC[C@@H](C(=O)NCC(N)=O)NC(=O)[C@H](CCCN)NC(=O)[C@H](C(C)C)NC1=O` [Example 1338] ({CH2CO}-FYDWV[Bip]R[NMeA][NMeF]RLV[Orn]CG-NH2; thioether N-14) it is 110 nM. Consider `CC(C)C[C@@H]1NC(=O)[C@H](CCN)NC(=O)[C@H](Cc2ccccc2)N(C)C(=O)[C@H](C)N(C)C(=O)[C@H](CCCN)NC(=O)[C@H](Cc2ccc(-c3ccccc3)cc2)NC(=O)[C@H](C(C)C)NC(=O)[C@H](Cc2c[nH]c3ccccc23)NC(=O)[C@H](CC(=O)O)NC(=O)[C@H](Cc2ccc(O)cc2)NC(=O)[C@H](Cc2ccccc2)NC(=O)CSC[C@@H](C(=O)N[C@@H](C)C(N)=O)NC(=O)[C@H]([C@@H](C)O)NC(=O)[C@H](C(C)C)NC1=O` [Example 1341] ({CH2CO}-FYDWV[Bip][Orn][NMeA][NMeF][Dab]LVTCA-NH2; thioether N-14), for which the IC50 was 200 nM.

With `CC(C)C[C@@H]1NC(=O)[C@H](CCN)NC(=O)[C@H](Cc2ccccc2)N(C)C(=O)[C@H](C)N(C)C(=O)[C@H](CCC(=O)O)NC(=O)[C@H](Cc2ccc(-c3ccccc3)cc2)NC(=O)[C@H](C(C)C)NC(=O)[C@H](Cc2c[nH]c3ccccc23)NC(=O)[C@H](CC(=O)O)NC(=O)[C@H](Cc2ccc(O)cc2)NC(=O)[C@H](Cc2ccccc2)NC(=O)CSC[C@@H](C(=O)N[C@@H](C)C(N)=O)NC(=O)[C@H]([C@@H](C)O)NC(=O)[C@H](C(C)C)NC1=O` [Example 1342] ({CH2CO}-FYDWV[Bip]E[NMeA][NMeF][Dab]LVTCA-NH2; thioether N-14), the IC50 is 70 nM. With `CC(C)C[C@@H]1NC(=O)[C@H](CCN)NC(=O)[C@H](Cc2ccccc2)N(C)C(=O)[C@H](C)N(C)C(=O)[C@H](CCC(=O)O)NC(=O)[C@H](Cc2ccc(-c3ccccc3)cc2)NC(=O)[C@H](C(C)C)NC(=O)[C@H](Cc2c[nH]c3ccccc23)NC(=O)[C@H](CC(=O)O)NC(=O)[C@H](Cc2ccc(O)cc2)NC(=O)[C@H](Cc2ccccc2)NC(=O)CSC[C@@H](C(=O)N[C@@H](CCC(=O)O)C(N)=O)NC(=O)[C@H]([C@@H](C)O)NC(=O)[C@H](C(C)C)NC1=O` [Example 1343] ({CH2CO}-FYDWV[Bip]E[NMeA][NMeF][Dab]LVTCE-NH2; thioether N-14), the IC50 worked out at 370 nM. Regarding `CC(C)C[C@@H]1NC(=O)[C@H](CCCNC(=N)N)NC(=O)[C@H](Cc2ccccc2)N(C)C(=O)[C@H](C)N(C)C(=O)[C@H](CCC(=O)O)NC(=O)[C@H](Cc2ccc(-c3ccccc3)cc2)NC(=O)[C@H](C(C)C)NC(=O)[C@H](Cc2c[nH]c3ccccc23)NC(=O)[C@H](CC(=O)O)NC(=O)[C@H](Cc2ccc(O)cc2)NC(=O)[C@H](Cc2ccccc2)NC(=O)CSC[C@@H](C(=O)N[C@@H](C)C(N)=O)NC(=O)[C@H]([C@@H](C)O)NC(=O)[C@H](C(C)C)NC1=O` [Example 1344] ({CH2CO}-FYDWV[Bip]E[NMeA][NMeF]RLVTCA-NH2; thioether N-14), the IC50 came to 220 nM. As for `CC(C)C[C@@H]1NC(=O)[C@H](CCCN)NC(=O)[C@H](Cc2ccccc2)N(C)C(=O)[C@H](C)N(C)C(=O)[C@H](CCCNC(=N)N)NC(=O)[C@H](Cc2ccc(-c3ccccc3)cc2)NC(=O)[C@H](C(C)C)NC(=O)[C@H](Cc2c[nH]c3ccccc23)NC(=O)[C@H](CC(=O)O)NC(=O)[C@H](Cc2ccc(O)cc2)NC(=O)[C@H](Cc2ccccc2)NC(=O)CSC[C@@H](C(=O)N[C@@H](C)C(N)=O)NC(=O)[C@H]([C@@H](C)O)NC(=O)[C@H](C(C)C)NC1=O` [Example 1345] ({CH2CO}-FYDWV[Bip]R[NMeA][NMeF][Orn]LVTCA-NH2; thioether N-14), the figure is 120 nM. With `CC(C)C[C@@H]1NC(=O)[C@H](CCCNC(=N)N)NC(=O)[C@H](Cc2ccccc2)N(C)C(=O)[C@H](C)N(C)C(=O)[C@H](CCCN)NC(=O)[C@H](Cc2ccc(-c3ccccc3)cc2)NC(=O)[C@H](C(C)C)NC(=O)[C@H](Cc2c[nH]c3ccccc23)NC(=O)[C@H](CC(=O)O)NC(=O)[C@H](Cc2ccc(O)cc2)NC(=O)[C@H](Cc2ccccc2)NC(=O)CSC[C@@H](C(=O)N[C@@H](C)C(N)=O)NC(=O)[C@H]([C@@H](C)O)NC(=O)[C@H](C(C)C)NC1=O` [Example 1346] ({CH2CO}-FYDWV[Bip][Orn][NMeA][NMeF]RLVTCA-NH2; thioether N-14), the IC50 was determined as 310 nM. The figure for `CC(C)C[C@@H]1NC(=O)[C@H](CCCNC(=N)N)NC(=O)[C@H](Cc2ccccc2)N(C)C(=O)[C@H](C)N(C)C(=O)[C@H](CCCN)NC(=O)[C@H](Cc2ccc(-c3ccccc3)cc2)NC(=O)[C@H](C(C)C)NC(=O)[C@H](Cc2c[nH]c3ccccc23)NC(=O)[C@H](CC(=O)O)NC(=O)[C@H](Cc2ccc(O)cc2)NC(=O)[C@H](CC(N)=O)NC(=O)CSC[C@@H](C(=O)N[C@@H](C)C(N)=O)NC(=O)[C@H]([C@@H](C)O)NC(=O)[C@H](C(C)C)NC1=O` [Example 1347] ({CH2CO}-NYDWV[Bip][Orn][NMeA][NMeF]RLVTCA-NH2; thioether N-14) is 160 nM; for `CC(C)C[C@@H]1NC(=O)[C@H](CCCNC(=N)N)NC(=O)[C@H](Cc2ccccc2)N(C)C(=O)[C@H](C)N(C)C(=O)[C@H](CCCNC(=N)N)NC(=O)[C@H](Cc2ccc(-c3ccccc3)cc2)NC(=O)[C@H](C(C)C)NC(=O)[C@H](Cc2c[nH]c3ccccc23)NC(=O)[C@H](CC(=O)O)NC(=O)[C@H](Cc2ccc(O)cc2)NC(=O)[C@H](Cc2cccnc2)NC(=O)CSC[C@@H](C(=O)N[C@@H](C)C(N)=O)NC(=O)[C@H]([C@@H](C)O)NC(=O)[C@H](C(C)C)NC1=O` [Example 1348] ({CH2CO}-[3Pal]YDWV[Bip]R[NMeA][NMeF]RLVTCA-NH2; thioether N-14) it is 220 nM.

As for `CC(C)C[C@@H]1NC(=O)[C@H](CCCNC(=N)N)NC(=O)[C@H](Cc2ccccc2)N(C)C(=O)[C@H](C)N(C)C(=O)[C@H](CCCNC(=N)N)NC(=O)[C@H](Cc2ccc(-c3ccccc3)cc2)NC(=O)[C@H](C(C)C)NC(=O)[C@H](Cc2c[nH]c3ccccc23)NC(=O)[C@H](CC(=O)O)NC(=O)[C@H](Cc2ccncc2)NC(=O)[C@H](CC(N)=O)NC(=O)CSC[C@@H](C(=O)N[C@@H](C)C(N)=O)NC(=O)[C@H]([C@@H](C)O)NC(=O)[C@H](C(C)C)NC1=O` [Example 1349] ({CH2CO}-N[4Pal]DWV[Bip]R[NMeA][NMeF]RLVTCA-NH2; thioether N-14), the IC50 was 330 nM. For the molecule `CC(C)C[C@@H]1NC(=O)[C@H](CCCN)NC(=O)[C@H](Cc2ccccc2)N(C)C(=O)[C@H](C)N(C)C(=O)[C@H](CCC(=O)O)NC(=O)[C@H](Cc2ccc(-c3ccccc3)cc2)NC(=O)[C@H](C(C)C)NC(=O)[C@H](Cc2c[nH]c3ccccc23)NC(=O)[C@H](CC(=O)O)NC(=O)[C@H](Cc2ccc(O)cc2)NC(=O)[C@H](Cc2ccccc2)NC(=O)CSC[C@@H](C(=O)N[C@@H](CCC(=O)O)C(N)=O)NC(=O)[C@H]([C@@H](C)O)NC(=O)[C@H](C(C)C)NC1=O` [Example 1350] ({CH2CO}-FYDWV[Bip]E[NMeA][NMeF][Orn]LVTCE-NH2; thioether N-14), the IC50 was found to be 210 nM.
